Test results published in US8716233B2, “NOTCH mutations leading to increased receptor signaling” (The Brigham and Women's Hospital, Inc., priority 2004, dated 2014).

Key:
[1] = test system: NOTCH-1; experiment: NOTCH-sensitive luciferase reporter gene assay in transiently transfected U2OS cells; format: cell-based, human
Protocol: FIG. 4A-4B. HD and PEST domain mutations activate NOTCH-1 signaling synergistically. (4A) Reporter gene assays. U2OS cells were transiently co-transfected in 24-well format with the indicated pcDNA3 plasmids, a NOTCH-responsive luciferase reporter gene, and an internal Renilla luciferase internal control plasmid, as described previously (Aster, et al., Mol. Cell. Biol. 20:7505-15). Twenty-five ng of pcDNA3 plasmid was used per well, except for experiments with pcDNA3-ICN1, in which 5 ng of plasmid per well were used. Normalized luciferase activities in whole cell lysates were determined in triplicate and expressed relative to the activity in lysates prepared from cells transfected with the empty vector control. (4B) Model for synergistic NOTCH-1 activation by dual mutations involving both the HD and PEST domains.
NOTCH-1 expression plasmids (pcDNA3) were transiently transfected with U2OS cells with (i) an artificial luciferase reporter gene under the control of a promoter containing CSL binding sites and (ii) an internal Renilla luciferase control gene, as described previously (Aster, et al., Mol. Cell. Biol. 20:7505-7515 (2000)), using Lipofectamine Plus (Invitrogen). Total DNA was kept constant by adding empty vector as needed. All transfections were carried out in triplicate, and each experiment was repeated at least three times.

[2] = test system: human T-ALL cell lines; experiment: Gamma-secretase inhibitor treatment of T-ALL cell lines, cell cycle analysis by flow cytometry; format: cell-based; conditions: compound E 1 μM, 4-8 days; thirty human T-ALL cell lines lacking t(7;9); compared with murine T6E reference line
Protocol: FIG. 2A-2C. Identification of T-ALL cell lines that require NOTCH signals for growth. (2A) Effect of the γ-secretase inhibitor compound E (GSI, 1 μM) or vehicle alone (mock) on the cell cycle distribution of sensitive cell lines. Cells were treated for 4-8 days, fixed in cold 70% ethanol, stained with propidium iodide, and analyzed by flow cytometry. Live cells were gated by forward/side scatter criteria. (2B) Rescue of GSI-induced cell cycle arrest by MSCV-GFP-ICN1 retrovirus. (2C) Induction of cell cycle arrest by dominant negative MSCV-GFP-Mastermind-like-1 retrovirus. In (2B) and (2C), control cultures were transduced with control empty MSCV-GFP retrovirus or the indicated test virus. Two days post-transduction, cultures were split in two and treated with either compound E (GSI) or DMSO vehicle (mock) for 7-10 days. Cultures were then harvested and stained with the DNA dye DRAQ5, which permits flow cytometric measurement of DNA content in unsorted GFP− and GFP+ subpopulations. A minimum of 15,000 events was collected to create each DNA content histogram. […]
DNA content was ascertained by flow cytometry and cell cycle factors determined using multicycle software (Phoenix Flow Systems, San Diego).

Which “stimulatory effects of mutated transmembrane NOTCH-1 polypeptides on luciferase reporter activity” value ([1]; HD and/or PEST domain mutated NOTCH-1 plasmids) does the source give for C[C@H](NC(=O)Cc1cc(F)cc(F)c1)C(=O)N[C@H]1N=C(c2ccccc2)c2ccccc2N(C)C1=O [γ-secretase inhibitor, compound E] here?
Its value is “completely abrogated”.

And the “stimulation of luciferase reporter activity produced by ICN1” value ([1]; pcDNA3-ICN1 (constitutively nuclear))?
The value was “unaffected”.

What about the “cell cycle distribution (G0/G1 cell cycle arrest) of T-ALL cell lines” value [2] of the same compound?
Its value is “five of thirty human T-ALL cell lines tested showed a G0/G1 cell cycle arrest”.
